Experimental findings from patent publication US9278922B2 (ABBVIE INC., priority 2009, dated 2016) are described below.

The assay relates to HCV 1b-Con-1 replicon. Nature of the assay: HCV 1b-Con-1 replicon assay (luciferase reporter gene, HuH-7 cells). The format is cell-based, Hepatitis C virus (HCV) genotype 1b-Con1. Conditions: Hepatitis C virus, Huh-7, luciferase reporter gene activity in the replicon, in the presence of 5% FBS.
On to `O=C([C@@H](c1ccccc1)N1CCOCC1)N1CCC[C@H]1c1nc2cc(CN(Cc3ccc4[nH]c([C@@H]5CCCN5C(=O)[C@@H](c5ccccc5)N5CCOCC5)nc4c3)c3ccccc3)ccc2[nH]1` [Example 67, N,N-bis[(2-{(2S)-1-[(2R)-2-morpholin-4-yl-2-phenylacetyl]pyrrolidin-2-yl}-1H-benzimidazol-5-yl)methyl]aniline], for which the EC50 was below 0.001 µM. With `CCN(CC)[C@@H](C(=O)N1CCC[C@H]1C(=O)Nc1ccc(CN(Cc2ccc(NC(=O)[C@@H]3CCCN3C(=O)[C@@H](c3ccccc3)N(CC)CC)cc2)c2ccc(F)cc2)cc1)c1ccccc1` [Example 54, (2S,2′S)-N,N-{[(4-fluorophenyl)imino]bis(methanediylbenzene-4,1-diyl)}bis{1-[(2R)-2-(diethylamino)-2-phenylacetyl]pyrrolidine-2-carboxamide}], the EC50 was below 0.001 µM. Consider `COC(=O)N[C@@H](C)C(=O)N1CCC[C@H]1C(=O)Nc1ccc(CN(Cc2ccc(NC(=O)[C@@H]3CCCN3C(=O)[C@H](C)NC(=O)OC)cc2)c2ccccc2)cc1` [Example 8, Dimethyl (2S,2′S)-1,1′-((2S,2′S)-2,2′-(4,4′-(phenylazanediyl)bis(methylene)bis(4,1-phenylene)bis(azanediyl))bis(oxomethylene)bis(pyrrolidine-2,1-diyl))bis(1-oxopropane-2,1-diyl)dicarbamate], for which the EC50 was in the range of 0.001 to 0.01 µM.

Take `COC(=O)N[C@H](C(=O)N1C[C@@H]2C[C@@H]2[C@H]1C(=O)Nc1ccc(CN(Cc2ccc(NC(=O)[C@@H]3[C@H]4C[C@H]4CN3C(=O)[C@@H](NC(=O)OC)C(C)(C)C)cc2)c2ccc(F)cc2)cc1)C(C)(C)C` [Example 109, methyl [(1S)-1-{[(1S,2S,5R)-2-{[4-({(4-fluorophenyl)[4-({[(1S,2S,5R)-3-{(2S)-2-[(methoxycarbonyl)amino]-3,3-dimethylbutanoyl}-3-azabicyclo[3.1.0]hex-2-yl]carbonyl}amino)benzyl]amino}methyl)phenyl]carbamoyl}-3-azabicyclo[3.1.0]hex-3-yl]carbonyl}-2,2-dimethylpropyl]carbamate]: the EC50 was 0.01 to 0.1 µM.

Take `CC(=O)O[C@H](C(=O)N1CCC[C@H]1C(=O)Nc1ccc(CN(Cc2ccc(NC(=O)[C@@H]3CCCN3C(=O)[C@H](OC(C)=O)c3ccccc3)cc2)c2ccc(F)cc2)cc1)c1ccccc1` [Example 113, [(4-fluorophenyl)imino]bis[methanediylbenzene-4,1-diylcarbamoyl(2S)pyrrolidine-2,1-diyl(1R)-2-oxo-1-phenylethane-2,1-diyl]diacetate]: the EC50 was below 0.001 µM. With `CN(C)C(=O)N[C@H](C(=O)N1CCC[C@H]1C(=O)Nc1ccc(CN(Cc2ccc(NC(=O)[C@@H]3CCCN3C(=O)[C@@H](NC(=O)N(C)C)C(C)(C)C)cc2)c2ccccc2)cc1)C(C)(C)C` [Example 80, (2S,2′S)-N,N′-[(phenylimino)bis(methanediylbenzene-4,1-diyl)]bis(1-{(2S)-2-[(dimethylcarbamoyl)amino]-3,3-dimethylbutanoyl}pyrrolidine-2-carboxamide)], the EC50 was in the range of 0.01 to 0.1 µM. On to `CC[C@H](NC(=O)OC)C(=O)N1CCC[C@H]1C(=O)Nc1ccc(CN(Cc2ccc(NC(=O)[C@@H]3CCCN3C(=O)[C@H](CC)NC(=O)OC)cc2)c2ccccc2)cc1` [Example 38, dimethyl [(phenylimino)bis{methanediylbenzene-4,1-diylcarbamoyl(2S)pyrrolidine-2,1-diyl[(2S)-1-oxobutane-1,2-diyl]}]biscarbamate], for which the EC50 lay within 0.001 to 0.01 µM.

For `COC(=O)N[C@H](C(=O)N(C)[C@@H](C)C(=O)Nc1ccc(CN(Cc2ccc(NC(=O)[C@H](C)N(C)C(=O)[C@@H](NC(=O)OC)C(C)(C)C)cc2)c2ccccc2)cc1)C(C)(C)C` [Example 47, dimethyl[(phenylimino)bis{methanediylbenzene-4,1-diylimino[(2S)-1-oxopropane-1,2-diyl](methylimino)[(2S)-3,3-dimethyl-1-oxobutane-1,2-diyl]}]biscarbamate], the EC50 was in the range of 0.001 to 0.01 µM. Consider `COC(=O)N[C@H](C(=O)N1C(C)CC[C@H]1C(=O)Nc1ccc(CN(Cc2ccc(NC(=O)[C@@H]3CCC(C)N3C(=O)[C@H](NC(=O)OC)C(C)(C)C)cc2)c2ccc(F)cc2)cc1)C(C)(C)C` (stereo partly drawn) [Example 142, methyl [(1R)-1-{[(2S)-2-{[4-({(4-fluorophenyl)[4-({[(2S)-1-{(2S)-2-[(methoxycarbonyl)amino]-3,3-dimethylbutanoyl}-5-methylpyrrolidin-2-yl]carbonyl}amino)benzyl]amino}methyl)phenyl]carbamoyl}-5-methylpyrrolidin-1-yl]carbonyl}-2,2-dimethylpropyl]carbamate], for which the EC50 was below 0.001 µM. Regarding `COCC(=O)N[C@H](C(=O)N1CCC[C@H]1C(=O)Nc1ccc(CN(Cc2ccc(NC(=O)[C@@H]3CCCN3C(=O)[C@@H](NC(=O)COC)C(C)(C)C)cc2)c2ccccc2)cc1)C(C)(C)C` [Example 40, (2S,2′S)-N,N′-[(phenylimino)bis(methanediylbenzene-4,1-diyl)]bis(1-{(2S)-2-[(methoxyacetyl)amino]-3,3-dimethylbutanoyl}pyrrolidine-2-carboxamide)], the EC50 lay within 0.01 to 0.1 µM.
